Patent publication US10080739B2, “Aryl imidazoles and their use as anti-cancer agents” (Aptose Biosciences Inc., priority 2003, dated 2018)

Experiments:
[1] = test system: panel of 60 human cancer cell lines; test: NCI/DTP in vitro anticancer screen, 60 cell lines; format: cell-based; conditions: 60 cell; NCI panel of 60 human cancer cell lines, value per compound (FIG. 10A); read-out: GI50 (growth inhibition by 50%)
Method: (§1) The twenty-three compounds of Formula I shown below were evaluated for their antiproliferative effects in a panel of 60 human cancer cell lines as part of the in vitro anticancer screening services provided by the DTP (Developmental Therapeutics Program) of the US National Cancer Institute (NCI) U.S. National Cancer Institute (NCI) of the National Institutes of Health (NIH) in […], Md.
(§2) The NCI conducts a standard 48/72 hour 60 cell line assay and an in vitro time course assay as described in Alley et al. (Cancer Res (1988) 48:589). In the standard 60 cell line assay, a minimum of 5 concentrations of the test compound are tested at 10-fold dilutions against 60 cell lines and cell growth is assayed at 48 and 72 hours using a sulphorhodamine B assay. For the time course analysis, tumour cells are treated with the test compound at various time points, then washed and grown in medium free of the test compound until the end of the experiment at 144 hrs. This assay employs 20% FBS to better approximate the minimum c×t (concentrations and times) test compound exposure conditions that are required to achieve activity in vivo. Cell growth is quantified by an MTT assay (similar to the XTT assay described above) and the concentration of the test compound required for growth inhibition is determined. […]

[2] = test system: renal cancer cell lines; test: NCI/DTP screen, renal cancer cell lines; format: cell-based; conditions: Homo sapiens; renal cancer cell lines (FIG. 10B)
Method: as §1, §2

[3] = test system: CaMKII; test: kinase profiler, CaMKII; format: biochemical, human; conditions: 10 μM compound, 100 μM ATP, mean of % control
Method: (§3) Compound 45 was tested for its ability to function as a kinase inhibitor using the kinase profiler service from Upstate Biotechnologies. The general protocol employed is as follows: recombinant kinases were incubated with specific substrates, 10 mM MgAcetate, and [γ-^33P-ATP]. The reaction was initiated by the addition of MgATP mix. After incubation at room temperature for 40 minutes, the reaction was stopped by the addition of 5 μl of a 3% phosphoric acid solution. 10 μl of the reaction was then spotted on to a P30 filtermat and washed 3 times for 5 min. in 75 mM phosphoric acid and once in methanol prior to drying and scintillation counting. Each reaction was performed in duplicate with 100 μM ATP −/+10 μM compound 45. Results are presented in Table IV and are expressed as the mean of % control (no compound). PI 3-kinase-γ (PI3K-γ) activity was determined with the PIProfiler™ assay, which measures the binding of the GRP1 pleckstrin homology (PH) domain to PIP3, the product of PI3K acting on its physiological substrate PIP2.

[4] = molecular target: T1, EphB4 (Homo sapiens, UniProt P54760); test: kinase profiler, EphB4; format: biochemical; conditions: 10 μM compound, 100 μM ATP, mean of % control
T1 construct: purchased Upstate Biotechnologies (kinase profiler service)
Method: as §3

[5] = molecular target: T2, Fms (Homo sapiens, UniProt P07333); test: kinase profiler, Fms; format: biochemical; conditions: 10 μM compound, 100 μM ATP, mean of % control
T2 construct: purchased Upstate Biotechnologies (kinase profiler service)
Method: as §3

[6] = molecular target: T3, PI3K-δ (Homo sapiens, UniProt O00329); test: kinase profiler, PI3K-δ; format: biochemical; conditions: 10 μM compound, mean of % control
T3 construct: purchased Upstate Biotechnologies (kinase profiler service)
Method: as §3

[7] = molecular target: T4, Rse (Homo sapiens, UniProt Q06418); test: kinase profiler, Rse; format: biochemical; conditions: 10 μM compound, 100 μM ATP, mean of % control
T4 construct: purchased Upstate Biotechnologies (kinase profiler service)
Method: as §3

[8] = molecular target: T5, SAPK4 (Homo sapiens, UniProt O15264); test: kinase profiler, SAPK4; format: biochemical; conditions: 10 μM compound, 100 μM ATP, mean of % control
T5 construct: purchased Upstate Biotechnologies (kinase profiler service)
Method: as §3

[9] = molecular target: T6, SRC (Homo sapiens, UniProt P12931); test: kinase profiler, SRC; format: biochemical; conditions: 10 μM compound, 100 μM ATP, mean of % control
T6 construct: purchased Upstate Biotechnologies (kinase profiler service)
Method: as §3

T4 sequence (Q06418 41-890): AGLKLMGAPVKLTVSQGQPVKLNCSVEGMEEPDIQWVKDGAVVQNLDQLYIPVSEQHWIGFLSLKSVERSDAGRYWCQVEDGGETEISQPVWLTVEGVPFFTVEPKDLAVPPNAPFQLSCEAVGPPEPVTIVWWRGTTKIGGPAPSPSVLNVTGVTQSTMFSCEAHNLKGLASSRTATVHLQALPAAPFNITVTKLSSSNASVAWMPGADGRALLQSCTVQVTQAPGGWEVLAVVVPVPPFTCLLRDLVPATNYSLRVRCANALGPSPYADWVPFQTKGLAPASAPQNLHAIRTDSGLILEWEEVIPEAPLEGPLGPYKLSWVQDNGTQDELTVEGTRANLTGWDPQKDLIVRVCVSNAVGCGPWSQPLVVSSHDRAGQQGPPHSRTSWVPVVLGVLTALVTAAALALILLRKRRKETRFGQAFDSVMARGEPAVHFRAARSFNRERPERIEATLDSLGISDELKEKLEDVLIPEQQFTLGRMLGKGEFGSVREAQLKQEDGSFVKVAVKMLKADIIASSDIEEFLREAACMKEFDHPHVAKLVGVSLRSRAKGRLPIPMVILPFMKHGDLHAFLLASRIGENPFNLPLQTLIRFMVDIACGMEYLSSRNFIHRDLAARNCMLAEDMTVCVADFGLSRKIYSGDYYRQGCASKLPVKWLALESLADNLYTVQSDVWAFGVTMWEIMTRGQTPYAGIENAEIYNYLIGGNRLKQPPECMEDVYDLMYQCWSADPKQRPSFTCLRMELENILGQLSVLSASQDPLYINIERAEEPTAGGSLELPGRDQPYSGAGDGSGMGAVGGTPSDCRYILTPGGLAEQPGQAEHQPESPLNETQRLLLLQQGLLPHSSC
T1 sequence (P54760 16-987): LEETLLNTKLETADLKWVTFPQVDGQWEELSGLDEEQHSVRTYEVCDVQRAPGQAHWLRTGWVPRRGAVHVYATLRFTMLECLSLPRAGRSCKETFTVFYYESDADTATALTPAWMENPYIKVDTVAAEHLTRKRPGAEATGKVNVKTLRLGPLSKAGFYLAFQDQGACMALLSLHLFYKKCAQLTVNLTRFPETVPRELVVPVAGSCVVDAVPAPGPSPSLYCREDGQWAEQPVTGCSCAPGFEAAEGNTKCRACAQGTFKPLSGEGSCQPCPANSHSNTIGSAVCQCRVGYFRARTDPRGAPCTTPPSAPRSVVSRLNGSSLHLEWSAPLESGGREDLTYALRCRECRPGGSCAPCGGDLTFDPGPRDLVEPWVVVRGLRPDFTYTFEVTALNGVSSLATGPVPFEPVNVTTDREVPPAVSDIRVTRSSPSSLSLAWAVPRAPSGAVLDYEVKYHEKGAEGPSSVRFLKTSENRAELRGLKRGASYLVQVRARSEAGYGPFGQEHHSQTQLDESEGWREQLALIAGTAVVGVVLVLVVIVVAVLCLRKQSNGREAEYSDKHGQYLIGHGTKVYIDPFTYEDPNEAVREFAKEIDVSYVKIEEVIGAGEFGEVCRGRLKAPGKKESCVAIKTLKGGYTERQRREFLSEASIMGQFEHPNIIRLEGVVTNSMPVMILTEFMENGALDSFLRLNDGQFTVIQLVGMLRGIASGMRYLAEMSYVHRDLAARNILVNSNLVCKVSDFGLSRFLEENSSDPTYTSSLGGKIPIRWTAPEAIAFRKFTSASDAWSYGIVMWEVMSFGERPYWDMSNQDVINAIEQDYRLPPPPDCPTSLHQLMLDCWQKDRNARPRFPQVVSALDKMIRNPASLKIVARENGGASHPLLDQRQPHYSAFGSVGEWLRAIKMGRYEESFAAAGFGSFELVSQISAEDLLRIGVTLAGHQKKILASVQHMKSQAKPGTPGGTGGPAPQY
T5 sequence (O15264 whole entry): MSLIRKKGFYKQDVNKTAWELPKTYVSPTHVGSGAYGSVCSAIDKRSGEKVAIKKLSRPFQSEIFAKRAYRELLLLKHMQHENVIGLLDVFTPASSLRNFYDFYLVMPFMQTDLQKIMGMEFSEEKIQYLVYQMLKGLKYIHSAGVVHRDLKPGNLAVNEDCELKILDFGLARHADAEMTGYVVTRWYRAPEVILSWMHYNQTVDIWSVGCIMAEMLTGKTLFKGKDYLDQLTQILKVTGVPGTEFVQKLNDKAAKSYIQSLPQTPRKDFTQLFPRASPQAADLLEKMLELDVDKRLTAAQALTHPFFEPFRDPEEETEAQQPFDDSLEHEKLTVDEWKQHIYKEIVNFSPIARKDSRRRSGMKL
T3 sequence (O00329 whole entry): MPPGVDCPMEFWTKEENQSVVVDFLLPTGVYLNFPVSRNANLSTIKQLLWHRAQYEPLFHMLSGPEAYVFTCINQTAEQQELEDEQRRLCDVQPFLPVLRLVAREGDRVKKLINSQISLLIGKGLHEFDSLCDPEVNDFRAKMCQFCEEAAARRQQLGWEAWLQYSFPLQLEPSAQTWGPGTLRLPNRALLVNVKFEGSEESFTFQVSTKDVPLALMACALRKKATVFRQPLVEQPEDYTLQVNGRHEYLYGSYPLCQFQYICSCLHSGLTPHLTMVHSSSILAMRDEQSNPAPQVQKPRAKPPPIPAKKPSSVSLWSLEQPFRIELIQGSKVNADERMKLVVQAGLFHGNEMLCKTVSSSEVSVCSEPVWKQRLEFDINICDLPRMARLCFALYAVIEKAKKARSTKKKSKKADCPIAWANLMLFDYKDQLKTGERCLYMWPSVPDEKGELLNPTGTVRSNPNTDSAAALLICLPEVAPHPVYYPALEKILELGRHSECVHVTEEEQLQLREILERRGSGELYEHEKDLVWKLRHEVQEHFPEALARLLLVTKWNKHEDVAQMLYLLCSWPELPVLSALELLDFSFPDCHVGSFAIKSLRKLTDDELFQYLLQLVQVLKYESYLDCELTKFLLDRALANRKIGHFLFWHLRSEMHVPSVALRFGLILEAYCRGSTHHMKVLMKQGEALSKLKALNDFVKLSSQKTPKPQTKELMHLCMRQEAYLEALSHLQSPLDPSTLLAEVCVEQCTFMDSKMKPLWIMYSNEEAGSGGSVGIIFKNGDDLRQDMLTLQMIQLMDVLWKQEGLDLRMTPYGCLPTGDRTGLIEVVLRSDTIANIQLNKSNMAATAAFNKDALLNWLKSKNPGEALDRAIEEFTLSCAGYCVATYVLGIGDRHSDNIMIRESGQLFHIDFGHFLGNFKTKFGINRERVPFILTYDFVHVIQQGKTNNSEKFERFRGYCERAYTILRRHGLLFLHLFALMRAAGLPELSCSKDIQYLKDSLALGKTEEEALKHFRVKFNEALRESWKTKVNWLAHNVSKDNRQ
T3 sequence (P27986 whole entry partner): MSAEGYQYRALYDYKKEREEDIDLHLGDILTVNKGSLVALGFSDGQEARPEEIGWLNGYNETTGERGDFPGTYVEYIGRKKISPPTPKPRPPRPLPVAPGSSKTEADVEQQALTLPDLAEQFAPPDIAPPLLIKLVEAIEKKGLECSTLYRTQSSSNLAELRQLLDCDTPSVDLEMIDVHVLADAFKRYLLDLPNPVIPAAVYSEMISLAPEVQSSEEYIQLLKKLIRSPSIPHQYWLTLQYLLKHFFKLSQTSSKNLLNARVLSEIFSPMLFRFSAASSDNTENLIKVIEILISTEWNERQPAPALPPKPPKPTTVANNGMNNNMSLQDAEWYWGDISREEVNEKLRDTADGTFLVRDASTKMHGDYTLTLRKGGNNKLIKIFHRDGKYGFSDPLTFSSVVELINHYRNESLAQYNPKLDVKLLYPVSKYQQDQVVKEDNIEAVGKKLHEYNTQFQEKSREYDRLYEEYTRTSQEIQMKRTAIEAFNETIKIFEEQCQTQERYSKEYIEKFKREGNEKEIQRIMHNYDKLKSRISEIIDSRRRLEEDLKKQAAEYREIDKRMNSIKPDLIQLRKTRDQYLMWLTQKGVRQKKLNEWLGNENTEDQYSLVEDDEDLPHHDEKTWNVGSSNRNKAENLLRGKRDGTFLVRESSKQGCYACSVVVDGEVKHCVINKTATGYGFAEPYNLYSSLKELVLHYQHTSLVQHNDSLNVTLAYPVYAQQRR
T6 sequence (P12931 whole entry): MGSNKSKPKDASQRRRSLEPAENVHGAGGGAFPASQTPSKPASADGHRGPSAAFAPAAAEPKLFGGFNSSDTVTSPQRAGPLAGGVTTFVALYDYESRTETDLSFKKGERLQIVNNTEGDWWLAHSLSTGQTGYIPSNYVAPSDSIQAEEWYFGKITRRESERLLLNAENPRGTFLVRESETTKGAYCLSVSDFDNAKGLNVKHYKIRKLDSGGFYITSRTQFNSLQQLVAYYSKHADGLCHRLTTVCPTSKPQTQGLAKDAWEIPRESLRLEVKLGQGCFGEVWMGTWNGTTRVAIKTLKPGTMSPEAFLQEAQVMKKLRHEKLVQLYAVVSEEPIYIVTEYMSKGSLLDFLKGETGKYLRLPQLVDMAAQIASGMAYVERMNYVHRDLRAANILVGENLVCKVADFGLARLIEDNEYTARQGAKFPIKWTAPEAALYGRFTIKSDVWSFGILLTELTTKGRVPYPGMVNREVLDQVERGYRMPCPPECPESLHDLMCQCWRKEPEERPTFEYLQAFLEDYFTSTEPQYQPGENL

SMILES: Brc1ccc2[nH]cc(-c3nc4c5ccccc5c5ccccc5c4[nH]3)c2c1 [Compound 45]
- GI50 [1]: 2000 nM
- GI50 [2]: 1300 nM
- % activity [3]: 32%
- activity at 10 µM [4]: 95%
- activity at 10 µM [5]: 135%
- activity at 10 µM [6]: 9%
- activity at 10 µM [7]: 176%
- activity at 10 µM [8]: 77%
- activity at 10 µM [9]: 102%
